Measured values from ChEMBL document CHEMBL5108051, “Improving the Antimicrobial Performance of Amphiphilic Cationic Antimicrobial Peptides Using Glutamic Acid Full-Scan and Positive Charge Compensation Strategies” (J Med Chem, 2022).
In brackets after ≈: the same amount, converted by molar mass. Activity calls are given as the source filed them. No cut-off for these calls is given here. Bridge positions count the residues as written; N and C are the ends. Square brackets hold non-standard residues; d marks the D form. Peptide text beside a SMILES is read from it. * marks the point of attachment. X1 = CC[C@H](C)CCCCC(=O)*; Dab = NCC[C@H](N)C(=O)O

Tests used:
[1] = test system: Cell membrane; test: Induction of cell membrane disruption in Staphylococcus aureus ATCC 25923 assessed as cell morphological damage measured after 30 mins by […] electron microscope analysis; type: subcellular
[2] = Stability of compound in serum measured after 1 to 6 hrs by RP-HPLC analysis; type: ADME, cell-free; conditions: time 1-6 hrs
[3] = test system: Escherichia coli; test: Bactericidal activity against Escherichia coli ATCC 25922 at 1 times MIC measured after 2 hrs by time-killing kinetics assay; type: functional
[4] = test system: Escherichia coli; test: Antibacterial activity against rifampin resistant Escherichia coli ATCC 25922 assessed as fractional inhibitory concentration index in presence of vancomycin by checkerboard assay; type: functional
[5] = test system: Cell membrane; test: Induction of cytoplasmic membrane depolarization in Staphylococcus aureus ATCC 25923 assessed as increase in fluorescence intensity at 1 to 4 times MIC measured within 1 min by DiSC3-5 dye based fluorescence method; type: subcellular; conditions: DDE = dose-dependent effect
[6] = Acute toxicity in BALB/c mouse assessed as decrease in motility at 40 to 80 mg/kg, ip administered as single dose measured for 7 days; type: organism-based; conditions: in vivo, 168 h, dose 40-80 mg/kg, time 7 day
[7] = test system: Cell membrane; test: Induction of cell membrane disruption in Escherichia coli ATCC 25922 assessed as increase in PI uptake measured after 30 to 120 mins by propidium iodide staining based FACS flow cytometry analysis (reference value: 6.0 %); type: subcellular; conditions: time 30-120 min
[8] = test system: Staphylococcus aureus; test: Antibacterial activity against rifampin resistant Staphylococcus aureus ATCC 25923 assessed as fractional inhibitory concentration index in presence of polymyxin B by checkerboard assay; type: functional
[9] = Acute toxicity in BALB/c mouse assessed as rough hairs at 40 to 80 mg/kg, ip administered as single dose measured for 7 days; type: organism-based; conditions: in vivo, 168 h, dose 40-80 mg/kg, time 7 day
[10] = test system: Staphylococcus aureus; test: Antibacterial activity against Staphylococcus aureus ATCC 25923 assessed as inhibition of rifampin resistance development measured after 15 passages in presence of rifampin by resistance development assay; type: functional, organism-based
[11] = test system: Escherichia coli; test: Antibacterial activity against rifampin resistant Escherichia coli ATCC 25922 assessed as fractional inhibitory concentration index in presence of polymyxin B by checkerboard assay; type: functional
[12] = Cytotoxicity against human Glomerular mesenchymal cell assessed as reduction in cell viability at 0 to 128 uM incubated for 1 hr by Resazurin cell viability kit; type: toxicity, cell-based; conditions: glomerular mesenchymal cells, dose 0-128 µM
[13] = test system: Staphylococcus aureus; test: Antibacterial activity against Staphylococcus aureus ATCC 25923 assessed as fractional inhibitory concentration index in presence of polymyxin B by checkerboard assay; type: functional
[14] = Acute toxicity in BALB/c mouse assessed as mortality at 40 mg/kg, ip administered as single dose measured for 7 days; type: organism-based; conditions: in vivo, time 7 day, read-out: Activity
[15] = test system: Staphylococcus aureus; test: Antibacterial activity against gentamicin resistant Staphylococcus aureus ATCC 25923 assessed as fractional inhibitory concentration index in presence of polymyxin B by checkerboard assay; type: functional
[16] = test system: Staphylococcus aureus; test: Antimicrobial activity against Staphylococcus aureus ATCC 25923 in presence of KCl; type: functional, organism-based
[17] = test system: Pseudomonas aeruginosa; test: Antibacterial activity against Pseudomonas aeruginosa ATCC 27853 assessed as growth inhibition measured after 18 to 24 hrs by CLSI based broth microdilution method; type: functional; conditions: time 18-24 hrs
[18] = Acute toxicity in BALB/c mouse assessed as abdominal twitching at 40 to 80 mg/kg, ip administered as single dose measured for 7 days; type: organism-based; conditions: in vivo, 168 h, dose 40-80 mg/kg, time 7 day
[19] = Acute toxicity in BALB/c mouse assessed as pathological changes in heart at 20 to 80 mg/kg, ip administered as single dose measured for 7 days by H and E staining method; type: organism-based; conditions: in vivo, 168 h, dose 20-80 mg/kg, time 7 day
[20] = test system: Staphylococcus aureus; test: Antibacterial activity against Staphylococcus aureus ATCC 25923 assessed as fractional inhibitory concentration index in presence of vancomycin by checkerboard assay; type: functional
[21] = test system: Escherichia coli; test: Antibacterial activity against rifampin resistant Escherichia coli ATCC 25922 assessed as fractional inhibitory concentration index in presence of kanamycin by checkerboard assay; type: functional
[22] = test system: Staphylococcus aureus; test: Antibiofilm activity against Staphylococcus aureus ATCC 25923 assessed as inhibition of biofilm formation measured at 0.5 to 4 times MIC after 24 hrs by crystal violet staining based assay; type: functional, organism-based; conditions: DDE = dose-dependent effect
[23] = test system: Escherichia coli; test: Antibacterial activity against gentamicin resistant Escherichia coli ATCC 25922 assessed as fractional inhibitory concentration index in presence of polymyxin B by checkerboard assay; type: functional
[24] = test system: Escherichia coli; test: Antimicrobial activity against Escherichia coli ATCC 25922 in presence of NaCl; type: functional, organism-based
[25] = test system: Escherichia coli; test: Antibacterial activity against gentamicin resistant Escherichia coli ATCC 25922 assessed as fractional inhibitory concentration index in presence of gentamicin by checkerboard assay; type: functional
[26] = test system: Escherichia coli; test: Antibacterial activity against Escherichia coli ATCC 25922 assessed as fractional inhibitory concentration index in presence of polymyxin B by checkerboard assay; type: functional
[27] = test system: Escherichia coli; test: Antimicrobial activity against Escherichia coli ATCC 25922 in presence of KCl; type: functional, organism-based
[28] = test system: Staphylococcus aureus; test: Antibacterial activity against gentamicin resistant Staphylococcus aureus ATCC 25923 assessed as fractional inhibitory concentration index in presence of vancomycin by checkerboard assay; type: functional
[29] = test system: Escherichia coli; test: Antibiofilm activity against Escherichia coli ATCC 25922 assessed as inhibition of biofilm formation at 0.5 times MIC measured after 24 hrs by crystal violet staining based assay; type: functional, organism-based
[30] = test system: Staphylococcus aureus; test: Antimicrobial activity against Staphylococcus aureus ATCC 25923 assessed as fold increase in MIC in presence of MgCl2; type: functional
[31] = test system: Staphylococcus aureus; test: Antimicrobial activity against Staphylococcus aureus ATCC 25923 assessed as fold increase in MIC in presence of NaCl; type: functional
[32] = test system: Staphylococcus aureus; test: Antibacterial activity against Staphylococcus aureus ATCC 25923 assessed as fractional inhibitory concentration index in presence of rifampin by checkerboard assay; type: functional
[33] = Acute toxicity in BALB/c mouse kidney assessed as edema at 10 to 40 mg/kg, ip administered as single dose measured for 7 days by H and E staining method; type: organism-based; conditions: in vivo, 168 h, dose 10-40 mg/kg, time 7 day
[34] = Acute toxicity in BALB/c mouse spleen assessed as inflammatory cell infiltration at 10 to 40 mg/kg, ip administered as single dose measured for 7 days by H and E staining method; type: organism-based; conditions: in vivo, 168 h, dose 10-40 mg/kg, time 7 day
[35] = test system: Escherichia coli; test: Bactericidal activity against Escherichia coli ATCC 25922 at 1 times MIC measured after 1 hr by time-killing kinetics assay; type: functional
[36] = test system: Cell membrane; test: Induction of cytoplasmic membrane depolarization in Escherichia coli ATCC 25922 assessed as increase in fluorescence intensity at 4 times MIC measured within 1 min by DiSC3-5 dye based fluorescence method; type: subcellular
[37] = test system: Escherichia coli; test: Antibiofilm activity against Escherichia coli ATCC 25922 assessed as inhibition of biofilm formation at 1 times MIC measured after 24 hrs by crystal violet staining based assay; type: functional, organism-based
[38] = Acute toxicity in BALB/c mouse lung assessed as congestion at 20 to 80 mg/kg, ip administered as single dose measured for 7 days by H and E staining method; type: organism-based; conditions: in vivo, 168 h, dose 20-80 mg/kg, time 7 day
[39] = Acute toxicity in BALB/c mouse lung assessed as distortion of alveolar morphology at 20 to 80 mg/kg, ip administered as single dose measured for 7 days by H and E staining method; type: organism-based; conditions: in vivo, 168 h, dose 20-80 mg/kg, time 7 day

Row | SMILES | Activity [1] | Stability [2] | fractional inhibitory concentration index (FICI) [4] | Activity [5] | Activity [6] | Activity [7] [%] | fractional inhibitory concentration index (FICI) [8] | Activity [9] | fractional inhibitory concentration index (FICI) [11] | CC50 at 1 h [12] [µM] | fractional inhibitory concentration index (FICI) [13] | mortality at 168 h [14] [%] | fractional inhibitory concentration index (FICI) [15] | MIC [17] [µM] | Activity [18] | Activity [19] | fractional inhibitory concentration index (FICI) [20] | fractional inhibitory concentration index (FICI) [21] | Activity [22] | fractional inhibitory concentration index (FICI) [25] | further results
1 | CC(C)C[C@H](NC(=O)[C@H](CC(C)C)NC(=O)[C@H](CCC(=O)O)NC(=O)[C@H](CCCCN)NC(=O)[C@H](CC(C)C)NC(=O)[C@H](CC(C)C)NC(=O)[C@H](CCCCN)NC(=O)[C@H](C)NC(=O)[C@@H](NC(=O)[C@H](CCCCN)NC(=O)[C@@H]1CCCN1C(=O)[C@H](CC(C)C)NC(=O)[C@@H](N)Cc1ccccc1)C(C)C)C(N)=O (H-FLPKVAKLLKELL-NH2) | Active | Stable | 0.825 | Dde | Toxic | 83.1 | 0.5 | Toxic | 0.25 | > 128 | 0.75 | 20 | 0.75 | 8 (≈ 12.1 µg/mL) | Toxic | Non-Toxic | 0.75 | 0.75 | Dde | 1.25 | Activity [3]: 100%; Activity [10]: Active; Activity [16]: Active; fractional inhibitory concentration index (FICI) [23]: 0.75; Activity [24]: Active; fractional inhibitory concentration index (FICI) [26]: 0.375; Activity [27]: Active
2 | CC[C@H](C)CCCCC(=O)N[C@@H](CCN)C(=O)N[C@H](C(=O)N[C@@H](CCN)C(=O)N[C@H]1CCNC(=O)[C@H]([C@@H](C)O)NC(=O)[C@H](CCN)NC(=O)[C@H](CCN)NC(=O)[C@H](CC(C)C)NC(=O)[C@@H](Cc2ccccc2)NC(=O)[C@H](CCN)NC1=O)[C@@H](C)O (X1-[Dab]T[Dab][Dab][Dab][dF]L[Dab][Dab]T; lactam 4-C) |  | Stable |  |  |  | 38.5 |  |  |  |  |  |  |  | 2 (≈ 2.41 µg/mL) |  | Non-Toxic | 1.0625 | 0.375 |  | 0.625 | fractional inhibitory concentration index (FICI) [28]: 1; Activity [29]: Active; fold change (FC) [30]: 2; fold change (FC) [31]: 4; fractional inhibitory concentration index (FICI) [32]: 2; Activity [33]: Non-Toxic; Activity [34]: Non-Toxic; Activity [35]: 100%; Activity [36]: Active; Activity [37]: Active; Activity [24]: Active; Activity [27]: Active
3 | CC[C@H](C)[C@H](NC(=O)[C@@H]1CCCN1C(=O)[C@H](CC(C)C)NC(=O)[C@@H](N)Cc1ccccc1)C(=O)N[C@H](C(=O)N[C@@H](C)C(=O)N[C@@H](CCCCN)C(=O)N[C@@H](CC(C)C)C(=O)N[C@@H](CC(C)C)C(=O)N[C@@H](CO)C(=O)NCC(=O)N[C@@H](CC(C)C)C(=O)N[C@@H](CC(C)C)C(N)=O)C(C)C (H-FLPIVAKLLSGLL-NH2) | Active |  | 0.25 | Dde | Toxic | 78.3 | 0.5 | Toxic | 0.25 | 35.9 | 0.75 | 40 | 0.625 | 128 (≈ 177 µg/mL) | Toxic | Non-Toxic | 1.0625 | 0.625 | Dde | 1 | Activity [38]: Toxic; fractional inhibitory concentration index (FICI) [28]: 0.625; Activity [29]: Active; fold change (FC) [30]: 2; fold change (FC) [31]: 2; fractional inhibitory concentration index (FICI) [32]: 0.75; Activity [39]: Toxic; Activity [37]: Active; fractional inhibitory concentration index (FICI) [23]: 0.75; fractional inhibitory concentration index (FICI) [26]: 0.625
